Results reported in US8575309B2, “Delta-opioid receptor selective analgesics” (Biousian Biosystems, Inc., priority 2008, dated 2013).
Read-outs that look alike come from different tables or passages of the source. Non-standard residues stand in square brackets, D forms with d. Residues, ends and D or L forms follow the SMILES beside them. *: point of attachment. βGlc = OC[C@H]1O[C@@H](*)[C@H](O)[C@@H](O)[C@@H]1O; Nle = CCCC[C@H](N)C(=O)O; Nva = CCC[C@H](N)C(=O)O

Legend:
[1] = target: T1, human delta opioid receptor (hDOR) (Homo sapiens, UniProt P41143); assay: Radioligand competition binding, [3H]naltrindole, hDOR CHO cell membranes; conditions: for rank order of affinity for the delta receptor: peptides at 100 nM and 1 nM vs. 0.2 nM [3H]Naltrindole, 20 ug hDOR CHO cell membranes (FIGS. 1 and 2)
T1 construct: expressed in transfected cells; membranes

[2] = target: T2, human mu opioid receptor (hMOR) (Homo sapiens, UniProt P35372); assay: Radioligand competition binding, [3H]DAMGO, hMOR CHO cell membranes
T2 construct: expressed in transfected cells; membranes

[3] = target: T3, human kappa opioid receptor (hKOR) (Homo sapiens, UniProt P41145); assay: Radioligand binding, [3H]U69,593, hKOR CHO cell membranes; conditions: peptide at 10 uM, read-out: Max Inhib at 10 uM (%) Kappa [3H]U69,593 Mean
T3 construct: expressed in transfected cells; membranes

[4] = target: T4, hDOR (Homo sapiens, UniProt P41143); assay: [35S]GTPγS binding assay, hDOR CHO cell membranes; type: biochemical; conditions: for Antagonist Properties Imax (%) Delta Mean: cell wraps over r13-r15: No Inhibition; for Description: Delta: functional classification; for Emax: read-out: Agonist Properties EMax (%) Delta Mean
T4 construct: expressed in transfected cells; membranes
Protocol: (§1) GTPγS binding assay to determine if the peptide is an agonist, antagonist, or partial agonist at the DOR. Membranes from the CHO cell lines, expressing either the MOR, DOR or KOR, will be incubated with 12 concentrations of each peptide for 60 min at 30° C. in a final volume of 0.5 mL of assay buffer (50 mM Tris-HCl, 3 mM MgCl2, 0.2 mM EGTA, 100 mM NaCl, pH 7.5) containing 3 μM GDP and 0.08 nM [^35S] GTPγS. Basal binding is determined in the presence of GDP and the absence of opioids, and nonspecific binding is determined by including 10 μM unlabeled […] GTPγS. The incubation is terminated by filtration under vacuum through glass fiber filters, followed by three washes with 3-ml ice-cold 50 mM Tris-HCl, pH 7.5. Samples are allowed to equilibrate overnight and are counted in 2 ml of Ecoscint A scintillation fluid for 2 min in a liquid scintillation counter.
(§2) GTPγS binding assay described in Example 3.

[5] = target: T5, hMOR (Homo sapiens, UniProt P35372); assay: [35S]GTPγS binding assay, hMOR CHO cell membranes; type: biochemical; conditions: for Antagonist Properties Imax (%) Mu Mean: cell wraps over r13-r15: No Inhibition; for Description: Mu: functional classification; for Emax: hMOR CHO cell membranes, @ 10 um, read-out: Agonist Properties EMax (%) Mu Mean
T5 construct: expressed in transfected cells; membranes
Protocol: as §1, §2

[6] = system: mouse tail flick; assay: Mouse tail flick assay, oral availability of formulations; type: in vivo; conditions: for antinociceptive activity: 32 mg/kg

T4 sequence (P41143 whole entry): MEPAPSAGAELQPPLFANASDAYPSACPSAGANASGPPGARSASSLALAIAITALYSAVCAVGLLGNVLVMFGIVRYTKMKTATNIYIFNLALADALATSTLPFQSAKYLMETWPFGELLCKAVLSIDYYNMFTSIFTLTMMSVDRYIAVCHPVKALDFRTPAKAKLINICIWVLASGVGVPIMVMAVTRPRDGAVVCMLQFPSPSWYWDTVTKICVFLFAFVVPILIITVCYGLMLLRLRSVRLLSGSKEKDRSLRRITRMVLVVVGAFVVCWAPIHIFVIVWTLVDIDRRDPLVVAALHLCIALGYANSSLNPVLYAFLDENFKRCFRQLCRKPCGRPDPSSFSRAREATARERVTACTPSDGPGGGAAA
T1 sequence (P41143 whole entry): as above
T5 sequence (P35372 whole entry): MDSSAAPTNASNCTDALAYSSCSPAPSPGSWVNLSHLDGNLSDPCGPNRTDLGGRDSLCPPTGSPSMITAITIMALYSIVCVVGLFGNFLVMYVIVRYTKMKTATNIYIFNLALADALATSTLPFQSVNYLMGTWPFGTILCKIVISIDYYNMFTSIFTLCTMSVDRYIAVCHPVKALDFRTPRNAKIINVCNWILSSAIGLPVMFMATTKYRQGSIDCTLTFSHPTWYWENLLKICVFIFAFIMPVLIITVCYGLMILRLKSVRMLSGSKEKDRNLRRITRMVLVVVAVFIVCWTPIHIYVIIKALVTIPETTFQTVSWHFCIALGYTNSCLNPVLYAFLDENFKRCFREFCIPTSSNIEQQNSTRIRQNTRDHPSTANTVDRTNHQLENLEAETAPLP
T3 sequence (P41145 whole entry): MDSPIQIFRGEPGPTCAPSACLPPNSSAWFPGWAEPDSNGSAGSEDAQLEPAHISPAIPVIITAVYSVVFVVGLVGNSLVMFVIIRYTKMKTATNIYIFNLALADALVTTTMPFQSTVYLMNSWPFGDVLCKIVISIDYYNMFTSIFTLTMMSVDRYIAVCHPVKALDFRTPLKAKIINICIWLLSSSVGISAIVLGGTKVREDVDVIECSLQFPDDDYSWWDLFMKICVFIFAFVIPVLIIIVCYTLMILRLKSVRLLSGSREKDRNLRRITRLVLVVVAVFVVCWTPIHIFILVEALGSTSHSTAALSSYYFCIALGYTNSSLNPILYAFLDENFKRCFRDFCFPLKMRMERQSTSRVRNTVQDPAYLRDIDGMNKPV
T2 sequence (P35372 whole entry): as the sequence (P35372 whole entry) above

CCC[C@H](NC(=O)[C@H](CCC)NC(=O)[C@H](CCC(=O)O)NC(=O)[C@H](Cc1ccccc1)NC(=O)[C@@H](C)NC(=O)[C@@H](N)Cc1ccc(O)cc1)C(=O)N[C@@H](CO[C@@H]1O[C@H](CO)[C@@H](O)[C@H](O)[C@H]1O)C(N)=O [Peptide 11005, H2N-YaFE-Nva-Nva-S(beta-D-Glc)-amide] (H-Y[dA]FE[Nva][Nva]S(βGlc)-NH2)
IC50 [1]: 61 nM
Ki [1]: 20 nM
rank order of affinity for the delta receptor [1]: [11001≈111003≈11008≈DPDDE]>[11005≈11006≈11007]>[11002≈11004]>Lsz27
Ki [2]: 710 nM
inhibition at 10 µM [3]: 5.3%

CCCC[C@H](NC(=O)[C@H](CCC(=O)O)NC(=O)[C@H](Cc1ccccc1)NC(=O)[C@@H](C)NC(=O)[C@@H](N)Cc1ccc(O)cc1)C(=O)N[C@@H](CCCC)C(=O)N[C@H](C(N)=O)[C@@H](C)O[C@@H]1O[C@H](CO)[C@@H](O)[C@H](O)[C@H]1O [Peptide 11008, H2N-YaFE-Nle-Nle-T(beta-D-Glc)-amide] (H-Y[dA]FE[Nle][Nle]T(βGlc)-NH2)
IC50 [1]: 42 nM
Ki [1]: 14 nM
rank order of affinity for the delta receptor [1]: [11001≈111003≈11008≈DPDDE]>[11005≈11006≈11007]>[11002≈11004]>Lsz27
lower affinity for delta than DPDPE ([1]; relative to DPDPE): ~3 fold
Ki [2]: 1100 nM
inhibition at 10 µM [3]: 2.9%
EC50 [4]: 12 nM
Antagonist Properties Imax (%) Delta Mean [4]: No
Description: Delta [4]: Agonist
Emax ([4]; hDOR CHO cell membranes): 75%
Antagonist Properties Imax (%) Mu Mean [5]: No
Description: Mu [5]: Very weak agonist
Emax [5]: 27%
efficacy of oral formulation versus unformulated glycopeptide ([6]; oral formulation, 3.2 mg/kg): just slightly lower efficacy than that produced by 32 mg/kg of unformulated glycopeptide 11008
antinociceptive activity ([6]; oral formulation): 75%
antinociceptive activity ([6]; saline formulation (unformulated)): 30%

CCCC[C@H](NC(=O)[C@H](CCC(=O)O)NC(=O)[C@H](Cc1ccccc1)NC(=O)[C@@H](C)NC(=O)[C@@H](N)Cc1ccc(O)cc1)C(=O)N[C@@H](CCCC)C(=O)N[C@H](C(N)=O)[C@@H](C)O [Peptide 11009, H2N-YaFE-Nle-Nle-T-amide] (H-Y[dA]FE[Nle][Nle]T-NH2)
Antagonist Properties Imax (%) Delta Mean [4]: No
Description: Delta [4]: Agonist
EC50 ([4]; hDOR CHO cell membranes, read-out: Agonist Properties EC50 (nM) Delta Mean): 12 nM
Emax ([4]; hDOR CHO cell membranes): 67%
Antagonist Properties Imax (%) Mu Mean [5]: No
Description: Mu [5]: Very weak agonist
Emax [5]: 42%

H2N-YaFE-Nle-Nle-S(beta-D-Glc)-amide (H-Y[dA]FE[Nle][Nle]S(βGlc)-NH2; SMILES CCCC[C@H](NC(=O)[C@H](CCCC)NC(=O)[C@H](CCC(=O)O)NC(=O)[C@H](Cc1ccccc1)NC(=O)[C@@H](C)NC(=O)[C@@H](N)Cc1ccc(O)cc1)C(=O)N[C@@H](CO[C@@H]1O[C@H](CO)[C@@H](O)[C@H](O)[C@H]1O)C(N)=O) [Peptide 11006]
rank order of affinity for the delta receptor [1]: [11001≈111003≈11008≈DPDDE]>[11005≈11006≈11007]>[11002≈11004]>Lsz27

H2N-YaFE-Nva-Nva-T(beta-D-Glc)-amide (H-Y[dA]FE[Nva][Nva]T(βGlc)-NH2; SMILES CCC[C@H](NC(=O)[C@H](CCC(=O)O)NC(=O)[C@H](Cc1ccccc1)NC(=O)[C@@H](C)NC(=O)[C@@H](N)Cc1ccc(O)cc1)C(=O)N[C@@H](CCC)C(=O)N[C@H](C(N)=O)[C@@H](C)O[C@@H]1O[C@H](CO)[C@@H](O)[C@H](O)[C@H]1O) [Peptide 11007]
rank order of affinity for the delta receptor [1]: [11001≈111003≈11008≈DPDDE]>[11005≈11006≈11007]>[11002≈11004]>Lsz27

H2N-YaFHLAS(beta-D-Glc)-amide (H-Y[dA]FHLAS(βGlc)-NH2; SMILES CC(C)C[C@H](NC(=O)[C@H](Cc1c[nH]cn1)NC(=O)[C@H](Cc1ccccc1)NC(=O)[C@@H](C)NC(=O)[C@@H](N)Cc1ccc(O)cc1)C(=O)N[C@@H](C)C(=O)N[C@@H](CO[C@@H]1O[C@H](CO)[C@@H](O)[C@H](O)[C@H]1O)C(N)=O) [Peptide 11002]
rank order of affinity for the delta receptor [1]: [11001≈111003≈11008≈DPDDE]>[11005≈11006≈11007]>[11002≈11004]>Lsz27

H2N-YaFHLAT(beta-D-Glc)-amide (H-Y[dA]FHLAT(βGlc)-NH2; SMILES CC(C)C[C@H](NC(=O)[C@H](Cc1c[nH]cn1)NC(=O)[C@H](Cc1ccccc1)NC(=O)[C@@H](C)NC(=O)[C@@H](N)Cc1ccc(O)cc1)C(=O)N[C@@H](C)C(=O)N[C@H](C(N)=O)[C@@H](C)O[C@@H]1O[C@H](CO)[C@@H](O)[C@H](O)[C@H]1O) [Peptide 11004]
rank order of affinity for the delta receptor [1]: [11001≈111003≈11008≈DPDDE]>[11005≈11006≈11007]>[11002≈11004]>Lsz27

H2N-YmFHLMS(beta-D-Glc)-amide (H-Y[dM]FHLMS(βGlc)-NH2; SMILES CSCC[C@H](NC(=O)[C@H](CC(C)C)NC(=O)[C@H](Cc1c[nH]cn1)NC(=O)[C@H](Cc1ccccc1)NC(=O)[C@@H](CCSC)NC(=O)[C@@H](N)Cc1ccc(O)cc1)C(=O)N[C@@H](CO[C@@H]1O[C@H](CO)[C@@H](O)[C@H](O)[C@H]1O)C(N)=O) [Peptide 11001]
rank order of affinity for the delta receptor [1]: [11001≈111003≈11008≈DPDDE]>[11005≈11006≈11007]>[11002≈11004]>Lsz27

H2N-YmFHLMT(beta-D-Glc)-amide (H-Y[dM]FHLMT(βGlc)-NH2; SMILES CSCC[C@H](NC(=O)[C@H](CC(C)C)NC(=O)[C@H](Cc1c[nH]cn1)NC(=O)[C@H](Cc1ccccc1)NC(=O)[C@@H](CCSC)NC(=O)[C@@H](N)Cc1ccc(O)cc1)C(=O)N[C@H](C(N)=O)[C@@H](C)O[C@@H]1O[C@H](CO)[C@@H](O)[C@H](O)[C@H]1O) [Peptide 11003]
rank order of affinity for the delta receptor [1]: [11001≈111003≈11008≈DPDDE]>[11005≈11006≈11007]>[11002≈11004]>Lsz27
